Patent US8753652B2, “Pharmaceutical composition including a DHA ester to be administered parenterally” (Pierre Fabre Medicament, priority 2009, dated 2014)

How the values were obtained:
[1] = Lipophilicity (Log P) of the nicotinic ester of DHA; assay type: physicochemical
Procedure: (§1) It is a very lipophilic compound (Log P approximately 7), wherein the solubility at equilibrium in water is <1 μg/ml. It is thus particularly difficult to formulate for parenteral administration.

[2] = Solubility at equilibrium in water; assay type: physicochemical; details: thermodynamic from solid
Procedure: as §1

logP [1]: ~7 | solubility [2]: < 1 µg/mL
SMILES: CC/C=C\C/C=C\C/C=C\C/C=C\C/C=C\C/C=C\CCC(=O)OCc1cccnc1 [nicotinic ester of DHA, pyridin-3-ylmethyl-cis-4,7,10,13,16,19-docosahexaenoic acid]
